Laboratory results taken from patent US9062066B2, “Anti-inflammatory compound having inhibitory activity against multiple tyrosine kinases and pharmaceutical composition containing same” (KOREA INSTITUTE OF SCIENCE AND TECHNOLOGY, priority 2010, dated 2015).
Where two headings read alike, the source gives them in different places.

What was measured:
DDR2 tyrosine kinase = DDR2 tyrosine kinase (Homo sapiens (Human), UniProt Q16832); experiment: in vitro DDR2 tyrosine kinase inhibition (GST-fused kinase domain); assay type: biochemical; details: 1 uM compound; read-out: % inhibition against DDR2
Hck tyrosine kinase = Hck tyrosine kinase (Homo sapiens (Human), UniProt P08631); experiment: in vitro Hck tyrosine kinase inhibition; assay type: biochemical; details: 1 uM compound; read-out: % inhibition against Hck
Fgr tyrosine kinase = Fgr tyrosine kinase (Homo sapiens (Human), UniProt P09769); experiment: in vitro Fgr tyrosine kinase inhibition; assay type: biochemical; details: 1 uM compound; read-out: % inhibition against Fgr
[1] = test system: TNF-α synthesis in J744A.1 macrophages; experiment: inhibition of TNF-α synthesis in LPS-activated macrophages (ELISA); assay type: cell-based; details: Macrophage, read-out: Inhibition (%) of TNF-α synthesis
[2] = test system: oxazolone-induced skin inflammation of Balb/C mouse ears; experiment: mouse skin inflammatory model induced by oxazolone (ear thickness); assay type: in vivo; details: 20 ul of 0.1% compound topical on ear, 36 hours after oxazolone
Description: The compounds of the present invention were evaluated for their effective anti-inflammatory activity using a skin inflammatory animal model of 8 weeks old Balb/C mouse ears induced by oxazolone. […] After 4 days, the thickness of ear was measured using a caliper for the thickness value of ear before the induction of inflammation. […] After 36 hours, the thickness of ear was measured for the increased thickness induced by inflammation. […] The average value was obtained in each group (n=4).

[3] = test system: α-smooth muscle actin protein expression in skin fibroblast cells; experiment: inhibition of α-smooth muscle actin expression in fibroblast activated by type I collagen and TGF-β1 (western blotting); assay type: cell-based, Balb/C mouse; details: Mus musculus, 0.5 uM compound, 10 ng/ml TGF-β1, 48 hours, type I collagen, read-out: Inhibition (%) of α-smooth muscle actin increase
Excerpt: When fibroblast, […] alpha smooth muscle cells are converted to myofibroblast by activation, one of characteristic features is that α-smooth muscle actin protein expression is increased. Also myoblast cells with the increased α-smooth muscle actin expression have a character of an increased migration. These phenomena appear together with the activation of inflammatory cells and the activated myoblast-type cells are known to contribute directly to the pathology of inflammatory diseases. […] In this experiment, the expression level of alpha smooth muscle actin can be quantificated by measuring the density of α-smooth muscle actin protein band with densitometer after developing the X-ray film of chemiluminescence signal in western blotting experiment.

DDR1 tyrosine kinase = DDR1 tyrosine kinase (Homo sapiens (Human), UniProt Q08345); experiment: in vitro DDR1 tyrosine kinase inhibition (GST-fused kinase domain); assay type: biochemical; details: 1 uM compound; read-out: % inhibition against DDR1
Lyn tyrosine kinase = Lyn tyrosine kinase (Homo sapiens (Human), UniProt P07948); experiment: in vitro Lyn tyrosine kinase inhibition; assay type: biochemical; details: 1 uM compound; read-out: % inhibition against Lyn
[4] = test system: NO synthesis in J744A.1 macrophage; experiment: inhibition of nitric oxide (NO) synthesis in LPS-activated macrophages (Griess reagent); assay type: cell-based; details: read-out: Inhibition (%) of NO synthesis
c-Src tyrosine kinase = c-Src tyrosine kinase (Homo sapiens (Human), UniProt P12931); experiment: in vitro c-Src tyrosine kinase inhibition (32P-ATP, poly(D4Y)n substrate); assay type: biochemical; details: 1 uM compound; read-out: % inhibition against c-Src
mouse skin fibroblast = experiment: inhibition of migration of activated fibroblast (scratch wound); assay type: cell-based; details: 0.5 uM compound, 10 ng/ml TGF-β1, 24 hours, read-out: Inhibition (%) of migration of activated fibroblast
Description: The straight line of regular width was made using a micro pipette tip for a scratch wound on the mono-layer culture, and then the culture was exchanged to DMEM medium and incubated with 10 ng/ml of TGF-β1 in cell culture incubator of 37° C. for 24 hours. The cultured cells were fixed using formalin and stained with crystal violet. Photo-pictures were taken at 100× magnification in five location selected randomly in the scratched wound site of each stained culture dish and then the number of the cells moved into the scratched wound area was counted and averaged.

[5] = 10 μM compound, 100 ng/ml LPS, 6 hours

Chain of Fgr tyrosine kinase (P09769 whole entry): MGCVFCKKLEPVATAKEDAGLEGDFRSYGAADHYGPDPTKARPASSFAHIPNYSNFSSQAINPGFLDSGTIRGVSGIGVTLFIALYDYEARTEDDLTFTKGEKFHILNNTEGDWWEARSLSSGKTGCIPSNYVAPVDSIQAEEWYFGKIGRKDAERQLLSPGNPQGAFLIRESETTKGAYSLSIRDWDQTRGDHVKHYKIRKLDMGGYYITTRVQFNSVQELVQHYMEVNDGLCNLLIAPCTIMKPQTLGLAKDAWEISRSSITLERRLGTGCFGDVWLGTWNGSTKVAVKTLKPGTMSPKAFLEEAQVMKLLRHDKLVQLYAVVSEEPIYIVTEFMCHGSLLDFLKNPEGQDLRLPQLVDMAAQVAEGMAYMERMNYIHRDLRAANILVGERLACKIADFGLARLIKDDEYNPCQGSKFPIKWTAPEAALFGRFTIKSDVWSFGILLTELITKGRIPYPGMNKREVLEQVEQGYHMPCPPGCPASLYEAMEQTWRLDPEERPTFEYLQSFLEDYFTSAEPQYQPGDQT
Chain of DDR1 tyrosine kinase (Q08345 610-905): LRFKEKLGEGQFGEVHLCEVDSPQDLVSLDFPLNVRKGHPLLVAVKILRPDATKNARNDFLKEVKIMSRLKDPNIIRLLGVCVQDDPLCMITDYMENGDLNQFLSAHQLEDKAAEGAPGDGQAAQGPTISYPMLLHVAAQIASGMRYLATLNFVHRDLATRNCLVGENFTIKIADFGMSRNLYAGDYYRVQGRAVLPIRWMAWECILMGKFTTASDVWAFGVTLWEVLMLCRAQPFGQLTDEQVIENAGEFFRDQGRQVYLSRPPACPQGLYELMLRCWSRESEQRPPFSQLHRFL
Chain of Hck tyrosine kinase (P08631 whole entry): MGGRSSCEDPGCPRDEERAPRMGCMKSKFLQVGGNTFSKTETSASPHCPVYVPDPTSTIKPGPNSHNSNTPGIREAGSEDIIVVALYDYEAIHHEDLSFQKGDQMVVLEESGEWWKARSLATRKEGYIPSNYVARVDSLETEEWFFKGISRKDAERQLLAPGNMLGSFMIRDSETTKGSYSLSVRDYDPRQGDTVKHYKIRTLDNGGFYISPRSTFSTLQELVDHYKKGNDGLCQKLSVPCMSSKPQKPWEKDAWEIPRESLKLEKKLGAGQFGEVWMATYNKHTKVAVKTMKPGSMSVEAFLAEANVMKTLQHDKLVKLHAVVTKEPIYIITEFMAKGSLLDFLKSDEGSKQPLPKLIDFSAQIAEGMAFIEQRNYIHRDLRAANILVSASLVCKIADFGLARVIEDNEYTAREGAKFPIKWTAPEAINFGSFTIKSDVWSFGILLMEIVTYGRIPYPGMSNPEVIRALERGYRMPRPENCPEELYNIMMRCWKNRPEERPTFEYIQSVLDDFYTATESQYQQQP
Chain of Lyn tyrosine kinase (P07948 whole entry): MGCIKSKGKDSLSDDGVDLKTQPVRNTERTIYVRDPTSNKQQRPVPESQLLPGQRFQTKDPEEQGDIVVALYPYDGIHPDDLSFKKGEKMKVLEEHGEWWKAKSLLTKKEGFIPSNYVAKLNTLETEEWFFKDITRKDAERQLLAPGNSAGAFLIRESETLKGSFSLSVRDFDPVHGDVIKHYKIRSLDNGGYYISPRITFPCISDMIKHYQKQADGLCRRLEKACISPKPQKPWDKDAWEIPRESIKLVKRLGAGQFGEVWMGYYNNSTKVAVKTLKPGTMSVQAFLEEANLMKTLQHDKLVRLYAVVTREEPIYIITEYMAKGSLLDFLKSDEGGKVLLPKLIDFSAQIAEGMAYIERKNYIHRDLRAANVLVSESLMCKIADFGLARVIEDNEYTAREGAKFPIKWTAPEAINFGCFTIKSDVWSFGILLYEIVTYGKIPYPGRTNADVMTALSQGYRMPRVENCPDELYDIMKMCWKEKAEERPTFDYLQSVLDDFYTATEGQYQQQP
Chain of DDR2 tyrosine kinase (Q16832 563-849): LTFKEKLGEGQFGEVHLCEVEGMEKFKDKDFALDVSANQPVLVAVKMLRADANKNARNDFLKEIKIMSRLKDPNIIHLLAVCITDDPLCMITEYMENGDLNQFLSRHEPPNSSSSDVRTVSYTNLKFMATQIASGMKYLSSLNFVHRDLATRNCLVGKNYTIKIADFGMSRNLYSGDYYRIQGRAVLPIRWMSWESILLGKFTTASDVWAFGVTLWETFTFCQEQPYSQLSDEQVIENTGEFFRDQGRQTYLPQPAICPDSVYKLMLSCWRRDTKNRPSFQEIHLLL
Chain of c-Src tyrosine kinase (P12931 whole entry, looked up): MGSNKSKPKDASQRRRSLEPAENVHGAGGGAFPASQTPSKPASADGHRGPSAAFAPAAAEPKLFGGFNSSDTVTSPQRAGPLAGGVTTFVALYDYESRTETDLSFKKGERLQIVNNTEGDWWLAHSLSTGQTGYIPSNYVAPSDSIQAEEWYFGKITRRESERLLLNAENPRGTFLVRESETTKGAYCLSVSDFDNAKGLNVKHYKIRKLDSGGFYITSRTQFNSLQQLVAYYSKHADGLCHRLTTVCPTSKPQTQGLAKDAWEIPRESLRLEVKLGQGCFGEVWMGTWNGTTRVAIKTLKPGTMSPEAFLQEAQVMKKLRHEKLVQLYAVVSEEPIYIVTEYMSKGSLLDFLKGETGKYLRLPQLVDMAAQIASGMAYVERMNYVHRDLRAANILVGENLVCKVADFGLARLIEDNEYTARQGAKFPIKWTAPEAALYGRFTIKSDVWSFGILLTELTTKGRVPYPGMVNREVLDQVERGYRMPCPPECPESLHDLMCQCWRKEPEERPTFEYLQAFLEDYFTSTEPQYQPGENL

| inhibition at 1 µM (DDR2 tyrosine kinase) [%] | inhibition at 1 µM (Hck tyrosine kinase) [%] | inhibition at 1 µM (Fgr tyrosine kinase) [%] | inhibition at 1 µM (DDR1 tyrosine kinase) [%] | inhibition at 1 µM (Lyn tyrosine kinase) [%] | inhibition at 1 µM (c-Src tyrosine kinase) [%] | SMILES | inhibition at 10 µM [1, 5] [%] | Inhibition (%) of increase of ear thickness [2] [%] | inhibition at 0.5 µM [3] [%] | inhibition at 10 µM ([4]; 10 μM compound, LPS, 24 hours) [%] | inhibition at 0.5 µM (mouse skin fibroblast) [%] | inhibition at 10 µM ([1]; 6 h) [%] | inhibition at 10 µM ([4]; 24 h) [%] |
| --- | --- | --- | --- | --- | --- | --- | --- | --- | --- | --- | --- | --- | --- |
| > 80 | > 70 | > 80 | > 80 | > 80 | > 80 | Cl.Oc1cccc(Nc2ncnc3cc(-c4ccc(CN5CCCC5)cc4)sc23)c1 [LCB 03-0034, 3-(6-(4-(pyrrolidin-1-ylmethyl)phenyl)thieno[3,2-d]pyrimidin-4-ylamino)phenol] | 75 | 29 | 67 | 90 | 32 |  |  |
| > 80 | > 60 | > 60 | > 80 | > 60 | > 60 | Oc1cccc(Nc2ncnc3cc(-c4ccc(CN5CCNCC5)cc4)sc23)c1 [LCB 03-0033, 3-(6-(4-(piperazine-1-ylmethyl)phenyl)thieno[3,2-d]pyrimidin-4-ylamino)phenol] | 59 | 22 | 60 | 77 | 30 |  |  |
| > 80 | > 80 | > 80 | > 80 | > 80 | > 80 | Cl.OCCNCc1ccc(-c2cc3ncnc(Nc4cccc(O)c4)c3s2)cc1 [LCB 03-0070, 3-(6-(4-((2-hydroxyethylamino)methyl)phenyl)thieno[3,2-d]pyrimidin-4-ylamino)phenol] | 77 | 55 | 42 | 90 | 30 |  |  |
| > 80 | > 80 | > 80 | > 80 | > 80 | > 80 | Cl.Oc1cccc(Nc2ncnc3cc(-c4cccc(CN5CCNCC5)c4)sc23)c1 [LCB 03-0064, 3-(6-(3-(piperazin-1-ylmethyl)phenyl)thieno[3,2-d]pyrimidin-4-ylamino)phenol] | 73 | 63 | 66 | 79 | 41 |  |  |
| > 80 | > 80 | > 80 | > 80 | > 80 | > 80 | CN1CCN(Cc2ccc(-c3cc4ncnc(Nc5cccc(O)c5)c4s3)cc2)CC1 [LCB 03-0036, 3-(6-(4-((4-methylpiperazin-1-yl)methyl)phenyl)thieno[3,2-d]pyrimidin-4-ylamino)phenol] | 61 | 28 | 63 | 81 | 39 |  |  |
| > 80 | > 80 | > 80 | > 80 | > 80 | > 80 | Oc1cccc(Nc2ncnc3cc(-c4ccc(CN5CCCCC5)cc4)sc23)c1 [LCB 03-0035, 3-(6-(4-(piperidin-1-ylmethyl)phenyl)thieno[3,2-d]pyrimidin-4-ylamino)phenol] | 65 | 31 | 55 | 91 | 31 |  |  |
| > 80 | > 80 | > 80 | > 80 | > 80 | > 80 | CN1CCN(Cc2cccc(-c3cc4ncnc(Nc5cccc(O)c5)c4s3)c2)CC1.Cl [LCB 03-0061, 3-(6-(3-((4-methylpiperazin-1-yl)methyl)phenyl)thieno[3,2-d]pyrimidin-4-ylamino)phenol] | 91 | 55 | 68 | 92 | 44 |  |  |
| > 80 | > 80 | > 80 | > 80 | > 80 | > 80 | Oc1cccc(Nc2ncnc3cc(-c4ccc(CN5CCOCC5)cc4)sc23)c1 [LCB 03-0032, 3-(6-(4-(morpholinomethyl)phenyl)thieno[3,2-d]pyrimidin-4-ylamino)phenol] | 77 | 27 | 56 | 92 | 35 |  |  |
| > 80 | > 80 | > 80 | > 80 | > 80 | > 80 | CCNCc1ccc(-c2cc3ncnc(Nc4cccc(O)c4)c3s2)cc1 [LCB 03-0042] | 98 | 33 | 69 | 91 | 46 |  |  |

| SMILES | inhibition at 1 µM (DDR2 tyrosine kinase) [%] | inhibition at 1 µM (Hck tyrosine kinase) [%] | inhibition at 1 µM (Fgr tyrosine kinase) [%] | inhibition at 1 µM (DDR1 tyrosine kinase) [%] | inhibition at 1 µM (Lyn tyrosine kinase) [%] | inhibition at 1 µM (c-Src tyrosine kinase) [%] | inhibition at 10 µM [1, 5] [%] | Inhibition (%) of increase of ear thickness [2] [%] | inhibition at 0.5 µM [3] [%] | inhibition at 10 µM ([4]; 10 μM compound, LPS, 24 hours) [%] | inhibition at 0.5 µM (mouse skin fibroblast) [%] | inhibition at 10 µM ([1]; 6 h) [%] | inhibition at 10 µM ([4]; 24 h) [%] |
| --- | --- | --- | --- | --- | --- | --- | --- | --- | --- | --- | --- | --- | --- |
| Oc1cccc(Nc2ccnc3cc(-c4cccc(CN5CCCCC5)c4)sc23)c1 [LCB 03-0109, 3-(2-(3-(piperidin-1-ylmethyl)phenyl)thieno[3,2-b]pyridin-7-ylamino)phenol] | > 80 | > 70 | > 70 | > 80 | > 70 | > 70 |  | 52 | 67 |  | 48 | 56 | 90 |
| Oc1cccc(Nc2ncnc3cc(-c4ccc(CN5CCCC5)o4)sc23)c1 [LCB 03-0086, 3-(6-(5-(pyrrolidin-1-ylmethyl)furan-2-yl)thieno[3,2-d]pyrimidin-4-ylamino)phenol] | > 80 | > 70 | > 70 | > 80 | > 70 | > 70 |  | 48 | 33 |  | 21 | 68 | 72 |
| CN1CCN(Cc2ccc(-c3cc4ncnc(Nc5cccc(O)c5)c4s3)o2)CC1 [LCB 03-0087, 3-(6-(5-((4-methylpiperazin-1-yl)methyl)furan-2-yl)thieno[3,2-d]pyrimidin-4-ylamino)phenol] | > 70 | > 70 | > 70 | > 70 | > 70 | > 70 |  | 43 | 29 |  | 24 | 68 | 83 |
| CN1CCN(Cc2cccc(-c3cc4nccc(Nc5cccc(O)c5)c4s3)c2)CC1 [LCB 03-0108, 3-(2-(3-((4-methylpiperazin-1-yl)methyl)phenyl)thieno[3,2-b]pyridin-7-ylamino)phenol] | > 80 | > 80 | > 80 | > 80 | > 80 | > 80 |  | 63 | 75 |  | 56 | 53 | 92 |
